Data reported in patent US11053223B2, “Phenoxyquinazoline compounds and their use in treating cancer” (AstraZeneca AB, priority 2017, dated 2021).

Experiments:
GIST [1] = details: PhIII study, patients with GIST after relapse to imatinib and sunitinib; cited from earlier work
[2] = target: T1, KIT exon11 deletion (557-558) and secondary mutation D816H (Homo sapiens, UniProt P10721, D816H/DEL557-558); test: MTS viability assay, Ba/F3 expressing KIT exon11 deletion (557-558) and D816H; type: cell-based; details: 72 h, KIT exon11 deletion (557-558) plus secondary mutation, mean of at least 3 biological replicates
T1 construct: expressed in transfected cells; host or cells: Ba/F3 cells infected with lentivirus (pLVX-IRES Puro vector)
T1 sequence (P10721 with tags, fused parts or gaps DEL557-558/D816H): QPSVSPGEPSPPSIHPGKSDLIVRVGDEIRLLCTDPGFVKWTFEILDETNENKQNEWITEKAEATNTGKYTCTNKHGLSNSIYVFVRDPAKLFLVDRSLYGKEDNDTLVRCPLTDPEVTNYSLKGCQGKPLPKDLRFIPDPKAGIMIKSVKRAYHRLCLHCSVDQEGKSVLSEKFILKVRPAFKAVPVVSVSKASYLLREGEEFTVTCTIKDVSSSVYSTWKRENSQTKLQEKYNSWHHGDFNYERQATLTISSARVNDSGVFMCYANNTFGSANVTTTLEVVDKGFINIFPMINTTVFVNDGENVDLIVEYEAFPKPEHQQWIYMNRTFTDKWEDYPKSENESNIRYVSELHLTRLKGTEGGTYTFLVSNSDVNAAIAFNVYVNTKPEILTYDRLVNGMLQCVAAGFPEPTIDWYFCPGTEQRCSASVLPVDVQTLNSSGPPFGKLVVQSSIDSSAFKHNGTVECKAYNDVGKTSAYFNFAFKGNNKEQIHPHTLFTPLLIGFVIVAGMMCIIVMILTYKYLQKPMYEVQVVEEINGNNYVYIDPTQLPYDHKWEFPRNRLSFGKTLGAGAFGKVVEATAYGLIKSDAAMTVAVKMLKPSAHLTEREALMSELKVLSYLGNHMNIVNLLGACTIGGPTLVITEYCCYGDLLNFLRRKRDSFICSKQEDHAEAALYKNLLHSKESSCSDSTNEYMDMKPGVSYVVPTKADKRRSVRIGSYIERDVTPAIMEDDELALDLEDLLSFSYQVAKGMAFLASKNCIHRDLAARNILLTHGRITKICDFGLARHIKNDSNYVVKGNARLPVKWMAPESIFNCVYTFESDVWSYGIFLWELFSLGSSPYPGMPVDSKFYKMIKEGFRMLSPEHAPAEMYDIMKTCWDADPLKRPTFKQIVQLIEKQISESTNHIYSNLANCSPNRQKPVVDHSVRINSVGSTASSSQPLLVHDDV
Procedure: (§1) 3 different KIT cDNA encoding for the exon11 deletion (557-558) and a secondary mutation (V654A, T670I, D816H) from Genescript were cloned into pLVX-IRES Puro vector(Clontech). Lentiviral particles were generated using Trans-lentiviral ORF packaging kit (TLP 5918) from Thermo Scientific (Waltham, Mass.) in HEK293-T/17 cells, according to the manufacturer's instructions.
(§2) Exponentially grown Ba/F3 cells (1.5×10^6 cells in 2 ml medium) were infected with 2 ml of viral suspension in a 6-well plate in the presence of mIL-3 (10 ng/ml) and polybrene (4 μg/ml) (Sigma Aldrich, St. Louis, Mo.) and incubated for 24 h. After 24 h, the cells were centrifuged and the viral supernatant was discarded. The cells were then re-suspended in fresh medium and allowed to recover for another day. The following day, the cells were seeded in complete medium without murine IL-3. After a week or two, when cells started proliferating, a selection was carried out by gradually increasing the puromycin concentration to 0.5 ug/ml. Once the cells were growing exponentially in puromycin, batches of cells were frozen down for banking.
(§3) The impact of KIT inhibitors on the viability of Ba/F3 expressing KIT mutations was determined using an MTS assay, which is a colorimetric sensitive quantification of viable cells in proliferation and cytotoxicity assay. In the MTS assay […] in the presence of phenazine methosulfate (PMS) was used. The mitochondrial reductase forms a formazan which absorbs at 490 nm. Cells in exponential growth phase were added to 384-well plates containing pre-dispensed compounds (top concentration 10 uM, 10-point curve). The cells were incubated for 72 h at 37° C. and 5% CO2. After 72 h, MTS reagent was added to the plates and incubated an additional 2 h at 37° C. before measuring the absorbance at 490 nm on a Tecan microplate reader using Magellan Software (Tecan Trading AG, Switzerland).
(§4) The absorbances were normalized as follows: (Read-Day0 control)/(Day3 control-Day0 control)*100. The GI50 values were generated using Genedata Screener software (Genedata; Lexington, Mass.). A non-linear regression with constraints for top and bottom between 100 and −100 and no constraint on the Hill coefficient was used to generate GI50 values. The GI50 values reported below are the calculated mean result of at least 3 biological replicates across all the cell lines tested.

[3] = target: T2, KIT exon11 deletion (557-558) and secondary mutation T670I (Homo sapiens, UniProt P10721, DEL557-558/T670I); test: MTS viability assay, Ba/F3 expressing KIT exon11 deletion (557-558) and T670I; type: cell-based; details: 72 h, KIT exon11 deletion (557-558) plus secondary mutation, mean of at least 3 biological replicates
T2 construct: expressed in transfected cells; host or cells: Ba/F3 cells infected with lentivirus (pLVX-IRES Puro vector)
T2 sequence (P10721 with tags, fused parts or gaps DEL557-558/T670I): as the sequence (P10721 with tags, fused parts or gaps DEL557-558/D816H) above, with T643I, H789D counted along it
Procedure: as §1, §2, §3, §4

[4] = target: T3, KIT exon11 deletion (557-558) and secondary mutation V654A (Homo sapiens, UniProt P10721, DEL557-558/V654A); test: MTS viability assay, Ba/F3 expressing KIT exon11 deletion (557-558) and V654A; type: cell-based; details: 72 h, KIT exon11 deletion (557-558) plus secondary mutation, mean of at least 3 biological replicates
T3 construct: expressed in transfected cells; host or cells: Ba/F3 cells infected with lentivirus (pLVX-IRES Puro vector)
T3 sequence (P10721 with tags, fused parts or gaps DEL557-558/V654A): as the sequence (P10721 with tags, fused parts or gaps DEL557-558/D816H) above, with V627A, H789D counted along it
Procedure: as §1, §2, §3, §4

[5] = test system: Tel-KDR (KDR K790-V1356 fused to the C-terminus of Tel); test: MTS viability assay, Ba/F3 expressing Tel-KDR; type: cell-based; details: 72 h, Ba/F3 cells, mean of at least 3 biological replicates
Procedure: Tel-KDR myc was cloned into pBCS2004, a retroviral vector, wherein KDR (K790-V1356) is fused to the C-terminus of Tel. Retroviral particles were generated in HEK293T cells. The Tel-KDR plasmid was co-transfected with helper viruses (gag-Pol and VSV-G) into HEK293T cells using calcium phosphate and the virus was harvested 72 h after transfection.
as §2, §3, §4

Ba/F3-Parental = test: MTS viability assay, Ba/F3 parental cells; type: cell-based; details: Mus musculus, BaF3, 72 h, top concentration 10 uM, mean of at least 3 biological replicates
Procedure: as §3, §4

GIST [6] = details: within 2 years; cited from earlier work

Structure (SMILES) | median PFS (GIST [1]) | Ba/F3-D816H GI50 [2] | Ba/F3-T6701 GI50 [3] | Ba/F3-V654A GI50 [4] | GI50 [5] | GI50 (Ba/F3-Parental) | patients developed resistance (GIST [6])
CNC(=O)c1cc(Oc2ccc(NC(=O)Nc3ccc(Cl)c(C(F)(F)F)c3)c(F)c2)ccn1 [Regorafenib] | 4.8 months | – | – | – | – | – | –
COc1cc2c(Oc3ccc(NC(=O)Cn4cc(C(C)C)nn4)cc3)ncnc2cc1OCCN(C)C [Example 7, N-(4-((7-(2-(Dimethylamino)ethoxy)-6-methoxyquinazolin-4-yl)oxy)phenyl)-2-(4-isopropyl-1H-1,2,3-triazol-1-yl)acetamide] | – | 41 nM | 57 nM | 15 nM | 2520 nM | ≥ 10000 nM | –
COc1cc2c(Oc3ccc(NC(=O)Cn4cc(C(C)C)nn4)cc3)ncnc2cc1OCCN1CCCC1 [Example 6, 2-(4-Isopropyl-1H-1,2,3-triazol-1-yl)-N-(4-((6-methoxy-7-(2-(pyrrolidin-1-yl)ethoxy)quinazolin-4-yl)oxy)phenyl)acetamide] | – | 55 nM | 72 nM | 22 nM | 2770 nM | ≥ 10000 nM | –
COCCOc1cc2ncnc(Oc3ccc(NC(=O)Cn4cc(C(C)C)nn4)cc3)c2cc1OC [Example 5, 2-(4-Isopropyl-1H-1,2,3-triazol-1-yl)-N-(4-((6-methoxy-7-(2-methoxyethoxy)quinazolin-4-yl)oxy)phenyl)acetamide] | – | 15 nM | 11 nM | 8 nM | 289 nM | ≥ 10000 nM | –
COc1cc2c(Oc3ccc(NC(=O)Cn4cc(C(C)C)nn4)cc3)ncnc2cc1O[C@H]1CCOC1 (single isomer, unassigned) [Example 13] | – | 24 nM | 30 nM | 13 nM | 577 nM | ≥ 10000 nM | –
Cc1ccc(NC(=O)c2ccc(CN3CCN(C)CC3)cc2)cc1Nc1nccc(-c2cccnc2)n1 [imatinib, Imatinib] | – | – | – | – | – | – | 50%
COc1cc2c(Oc3ccc(NC(=O)Cn4cc(C(C)C)nn4)cc3)ncnc2cc1OC1COC1 [Example 10, 2-(4-Isopropyl-1H-1,2,3-triazol-1-yl)-N-(4-((6-methoxy-7-(oxetan-3-yloxy)quinazolin-4-yl)oxy)phenyl)acetamide] | – | 51 nM | 74 nM | 18 nM | 1840 nM | ≥ 10000 nM | –
COc1cc2c(Oc3ccc(NC(=O)Cn4cc(C(C)C)nn4)cc3)ncnc2cc1OCCO [Example 8, N-(4-((7-(2-Hydroxyethoxy)-6-methoxyquinazolin-4-yl)oxy)phenyl)-2-(4-isopropyl-1H-1,2,3-triazol-1-yl)acetamide] | – | 75 nM | 55 nM | 25 nM | 1160 nM | ≥ 10000 nM | –
COc1cc2ncnc(Oc3ccc(NC(=O)Cn4cc(C(C)C)nn4)cc3)c2cc1OC [Example 1, N-(4-((6,7-Dimethoxyquinazolin-4-yl)oxy)phenyl)-2-(4-isopropyl-1H-1,2,3-triazol-1-yl)acetamide] | – | 19 nM | 17 nM | 3 nM | 600 nM | ≥ 10000 nM | –
COc1cc2ncnc(Oc3ccc(NC(=O)Cn4cc(C(C)C)nn4)cc3F)c2cc1OC [Example 4, N-(4-((6,7-Dimethoxyquinazolin-4-yl)oxy)-3-fluorophenyl)-2-(4-isopropyl-1H-1,2,3-triazol-1-yl)acetamide] | – | 15 nM | 8 nM | 1 nM | 142 nM | ≥ 10000 nM | –
COc1cc2ncnc(Oc3ccc(NC(=O)Cn4cc(C5CC5)nn4)cc3)c2cc1OC [Example 2, 2-(4-Cyclopropyl-1H-1,2,3-triazol-1-yl)-N-(4-((6,7-dimethoxyquinazolin-4-yl)oxy)phenyl)acetamide] | – | 95 nM | 68 nM | 4 nM | 1930 nM | ≥ 10000 nM | –
COc1cc2c(Oc3ccc(NC(=O)Cn4cc(C(C)C)nn4)cc3)ncnc2cc1O[C@@H]1CCOC1 (single isomer, unassigned) [Example 12] | – | 22 nM | 23 nM | 11 nM | 840 nM | ≥ 10000 nM | –
COc1cc2c(Oc3ccc(NC(=O)Cn4cc(C(C)C)nn4)cc3)ncnc2cc1OC(C)C [Example 11, N-[4-(7-Isopropoxy-6-methoxy-quinazolin-4-yl)oxyphenyl]-2-(4-isopropyl-1H-1,2,3-triazol-1-yl)acetamide] | – | 28 nM | 57 nM | 16 nM | 903 nM | ≥ 10000 nM | –
COc1cc(Oc2ncnc3cc(OC)c(OC)cc23)ccc1NC(=O)Cn1cc(C(C)C)nn1 [Example 3, N-(4-((6,7-Dimethoxyquinazolin-4-yl)oxy)-2-methoxyphenyl)-2-(4-isopropyl-1H-1,2,3-triazol-1-yl)acetamide] | – | 41 nM | 23 nM | 13 nM | 1080 nM | ≥ 10000 nM | –
COc1cc2c(Oc3ccc(NC(=O)Cn4cc(C(C)C)nn4)cc3)ncnc2cc1OC1CCOCC1 [Example 9, 2-(4-Isopropyl-1H-1,2,3-triazol-1-yl)-N-(4-((6-methoxy-7-((tetrahydro-2H-pyran-4-yl)oxy)quinazolin-4-yl)oxy)phenyl)acetamide] | – | 46 nM | 77 nM | 17 nM | 2110 nM | ≥ 10000 nM | –
